In paper PMC7069095, “A cell-permeable peptide-based PROTAC against the oncoprotein CREPT proficiently inhibits pancreatic cancer” (Theranostics, 2020):
Entries after “also recorded” stand apart in the source; their conditions may differ. Non-standard residues stand in square brackets, D forms with d. Residues, ends and D or L forms follow the SMILES beside them. Hyp = O=C(O)[C@@H]1C[C@@H](O)CN1; Ahx = NCCCCCC(=O)O

What was measured:
Format in all cases: cell-based
Panc-1 cells [1] = assay: Colony formation; conditions: 500 cells per well, 10 days, than the control cells
Procedure: Cells were seeded into 6-well plates (500 cells per well) and cultured for 10 days, then washed with PBS and stained with 0.1% crystal violet. The number of colonies was counted by ImageJ and presented as the mean ± standard deviation (SD) from three individual experiments.

Panc-1 cells [2] = assay: Wound healing; conditions: 10 μM for 24 h, FBS-free DMEM
Procedure: Cells were seeded in 6-well plates. Monolayer cells were scratched after culturing to obtain at least 95% confluence. Cells were washed with PBS and maintained in FBS-free DMEM and then treated with 10 μM PRTC and PRTC-m for 24 h. Migration distance was observed by microscopy and was measured by ImageJ from three individual experiments.

[3] = molecular target: T1, endogenous CREPT protein in MIA PaCa-2 cells (Homo sapiens, UniProt Q9NQG5); assay: Western blot of endogenous CREPT (degradation); conditions: 24 h incubation
T1 construct: endogenous protein level of CREPT in Panc-1, AsPc-1 and MIA-PaCa-2 cells; endogenous in cells; host or cells: Panc-1, AsPc-1, MIA PaCa-2
T1 sequence (Q9NQG5 1-326): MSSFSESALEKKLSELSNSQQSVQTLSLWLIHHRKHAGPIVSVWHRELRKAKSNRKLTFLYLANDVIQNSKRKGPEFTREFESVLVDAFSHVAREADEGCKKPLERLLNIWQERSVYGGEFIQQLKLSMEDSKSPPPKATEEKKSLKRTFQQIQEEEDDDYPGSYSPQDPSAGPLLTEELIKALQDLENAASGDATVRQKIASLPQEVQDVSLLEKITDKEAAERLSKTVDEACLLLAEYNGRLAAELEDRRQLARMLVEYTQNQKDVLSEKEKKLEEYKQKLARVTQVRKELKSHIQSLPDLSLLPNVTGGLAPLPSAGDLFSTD
Procedure: (§1) For exogenous immunoprecipitation assays, HEK293T cells were plated in 60 mm dishes and then transfected with the indicated plasmids. After 24 h, cells were harvested using RIPA buffer (50 mM Tris-HCl pH 8.0, 2 mM EDTA pH 8.0, 150 mM NaCl, 1% NP-40, 0.5% sodium deoxycholate, 0.1% SDS) with mixed protease inhibitors. Cell lysates were incubated with 2 μg of the indicated antibodies and 30 μL of protein A/G-Sepharose beads at 4 °C overnight. Beads were eluted five times with lysis buffer (50 mM Tris-HCl pH 7.6, 1 mM EDTA pH 8.0, 165 mM NaCl, 0.5% NP-40), and thereafter, a western blot assay was performed to analyze the association by using the indicated antibodies. Western blot was performed as previously reported. Anti-β-actin and anti-Flag antibodies were purchased from Sigma. Anti-Myc antibody was purchased from Santa Cruz Biotechnology. Antibody against CREPT was produced in the laboratory.
To address whether PRTC could induce CREPT degradation, we examined the endogenous protein level of CREPT in Panc-1, AsPc-1 and MIA-PaCa-2 cells in the presence of different dosages of PRTC. […] Consistently, treatment with PRTC led to decreases in CREPT protein at different times (Figure 5B, S3A). […] To further visualize the degradation process, we stained the endogenous CREPT protein with an antibody against CREPT in the cells treated with FITC-labeled PRTC.
Figure S3. PRTC induces CREPT degradation. […]

[4] = molecular target: T2, ubiquitinated CREPT in Panc-1 cells (Homo sapiens, UniProt Q9NQG5); assay: Endogenous IP of CREPT with ubiquitin (Co-IP); conditions: 10 μM peptide for 24 h
T2 construct: endogenous protein level of CREPT in Panc-1, AsPc-1 and MIA-PaCa-2 cells; endogenous in cells; host or cells: Panc-1, AsPc-1, MIA PaCa-2
T2 sequence (Q9NQG5 1-326): T1 sequence (Q9NQG5 1-326)
Procedure: as §1
In addition, a Co-IP experiment was performed in Panc-1 cells treated with 10 μM PRTC, PRTC-m or PRTC-v for 24 h. […] In the absence of MG132, the level of ubiquitinated CREPT was further increased by PRTC (Figure 6C, compare lane 1 and lane 2).
Figure 6 The degradation of CREPT by PRTC is dependent on its VHL ligand. (A) Immunoblot of CREPT following 24 h incubation with different dosages of PRTC or PRTC-v in Panc-1 cells. (B) Immunoblot of CREPT exposed to 10 μM PRTC or PRTC-v for different time points in Panc-1 cells. (C) Endogenous IP experiment of CREPT with ubiquitin treated with 10 μM PTRC, PTRC-m or PTRC-v in Panc-1 cells. IP: CREPT, IB: Anti-ubiquitin.

Panc-1 cells [5] = assay: Confocal fluorescence imaging of FITC labeled peptides in cells; conditions: flow cytometry and confocal imaging of FITC-labeled PRTC; Panc-1, AsPc-1, MIA PaCa-2 cells
Procedure: To examine whether PRTC could permeate into pancreatic cancer cells, we synthesized fluorescein isothiocyanate (FITC) labeled PRTC, PRTC-m, PRTC-v, PRTC-r (PRTC without RRRRK) as well as TAT (a widely used cell penetrating peptide, as a positive control).
Figure 3 Identification of the permeability of PRTC in Panc-1 cells. (A) Entry of FITC- labeled peptides into Panc-1 cells tested by flow cytometry. FITC-TAT is the positive control. Measurements were performed in triplicate. (B) Quantification of cellular uptake of Panc-1 cells treated with different concentrations of FITC-PRTC. (C) Confocal microscope images of Panc-1 cells treated with 10 μM FITC labeled peptides. Scale bars, 10 μm. (D) Confocal microscope images of Panc-1 cells treated with different dosages of FITC-PRTC. Scale bars, 10 μm.

HPDE6-C7 cells = assay: Cell proliferation assay; conditions: little CREPT expression
Procedure: Cells were seeded into 96-well plates (1000 cells per well) and cultured for the indicated times. Cell viability was evaluated using a CCK-8 kit (Solarbio, Beijing, China). The value of OD450 was calculated by spectrophotometer and presented as the mean ± standard deviation (SD) from three individual experiments. […]
(H) Cell proliferation assay of
HPDE6-C7 cells. […] HPDE6-C7
is anormal pancreatic epithelial cell line.
(1 picture or pasted object on this page, not shown here)

Panc-1 cells [6] = assay: Cell viability assay (CCK-8); conditions: 10 μM, CCK-8, OD450, three individual experiments
Procedure: Cells were seeded into 96-well plates (1000 cells per well) and cultured for the indicated times. Cell viability was evaluated using a CCK-8 kit (Solarbio, Beijing, China). The value of OD450 was calculated by spectrophotometer and presented as the mean ± standard deviation (SD) from three individual experiments.

CC[C@H](C)[C@H](N)C(=O)N[C@@H](Cc1ccc(O)cc1)C(=O)N1C[C@H](O)C[C@H]1C(=O)N[C@@H](C)C(=O)N[C@@H](CC(C)C)C(=O)NCCCCCC(=O)N[C@@H](CCCCN)C(=O)N[C@@H](CC(=O)O)C(=O)N[C@H](C(=O)N[C@@H](CC(C)C)C(=O)N[C@@H](CO)C(=O)N[C@@H](CCC(=O)O)C(=O)N[C@@H](CCCCN)C(=O)N[C@@H](CCC(=O)O)C(=O)N[C@@H](CCCCN)C(=O)N[C@@H](CCCCN)C(=O)N[C@@H](CC(C)C)C(=O)N[C@@H](CCC(=O)O)C(=O)N[C@@H](CCC(=O)O)C(=O)N[C@@H](Cc1ccc(O)cc1)C(=O)N[C@@H](CCCCN)C(=O)N[C@@H](CCC(N)=O)C(=O)N[C@@H](CCCCN)C(=O)N[C@@H](CC(C)C)C(=O)N[C@@H](C)C(=O)N[C@@H](CCCNC(=N)N)C(=O)N[C@H](C(=O)N[C@@H](CCCNC(=N)N)C(=O)N[C@@H](CCCNC(=N)N)C(=O)N[C@@H](CCCNC(=N)N)C(=O)N[C@@H](CCCNC(=N)N)C(=O)N[C@@H](CCCCN)C(=O)O)C(C)C)C(C)C [PRTC] (H-IY[Hyp]AL[Ahx]KDVLSEKEKKLEEYKQKLARVRRRRK-OH; N-terminus and C-terminus assumed)
colony formation (Panc-1 cells [1]): fewer colonies
cell movement (wound healing) (Panc-1 cells [2]): decreased cell movement
CREPT protein level upon different dosages [3]: dramatically decreased
CREPT protein level ([4]; Co-IP experiment): significantly decreased
ubiquitinated CREPT proteins ([4]; IP: CREPT, IB: anti-ubiquitin): increased
time to permeate into pancreatic cancer cells (Panc-1 cells [5]): ≤ 2 h
cell proliferation of a normal pancreatic epithelial cell line (HPDE6-C7 cells): failed to influence; also recorded: failed to inhibit
cell proliferation (Panc-1 cells [6]): dramatically inhibited
